According to the supplement of paper PMC11208160:

Assay: recombinant barcode read abundance after kanamycin selection (control-corrected) (log10(CPM+1)); higher = more efficient recombination; sequences stand for … in AGTGCAGAGAAAATCGGCCAGTTTTCTCTGCCTGCAGTCCGCATGCCGT…AGATTTATGCAGCGGACTGCCTTTCTCCCAAAGTGATAAACCGGACAGTATCATGGACCGGTTTTCCCGGTAATCCGTATTTGCAAGGTTGGTTTCACT; site = the 11-nt target
Procedure, shortened: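 Oligos holding a promoter, target, barcode and the J23119-driven first 104 bases of the bridge RNA were Gibson-cloned into a vector that supplied the other 73 bp plus a T7-inducible recombinase. This library was co-electroporated with a donor plasmid into E. coli. Two replicates went on chloramphenicol/ampicillin LB agar (control) and two on chloramphenicol/ampicillin/kanamycin with 0.1 mM IPTG. Recombination efficiency is read from averaged, control-corrected barcode counts per million at recombinant junctions, reported as log10(CPM+1).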
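Further: IS621 recombinase and bridge RNA in Escherichia coli cells.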

| Sequence | recombinant barcode read abundance (log10) |
| --- | --- |
| CTCGGATCTTGGGTTCTAACCTGTTGCTG (site CTCGGATCTGA) | 0 |
| CTCGGATCTTGGGTTCTAACCTGTTGCTG (site CTCGGATCTTA) | 0.133 |
| CTCGTACCTTGGGTTCTAACCTGTTGCGG (site CTCGTACCTCC) | 2.52 |
| CTCGTACCTTGGGTTCTAACCTGTTGCGG (site CTCGTAGCTCC) | 0.0696 |
| CTCGTAGCTTGGGTTCTAACCTGTTGCCT (site AGTAGTTCTCT) | 0.223 |
| CTCGTAGCTTGGGTTCTAACCTGTTGCCT (site CTCGTAGCTAG) | 0.651 |
| CTCGTAGCTTGGGTTCTAACCTGTTGCGG (site CTCGTACCTCC) | 0.0414 |
| CTCGTAGCTTGGGTTCTAACCTGTTGCGG (site CTCGTAGCTCC) | 1.23 |
| CTCGTCACTTGGGTTCTAACCTGTTGCCT (site CTCGTAACTAG) | 0.106 |
| CTCGTCACTTGGGTTCTAACCTGTTGCCT (site CTCGTCACTAG) | 1.91 |
| CTCGTCACTTGGGTTCTAACCTGTTGCCT (site CTCGTGACTAG) | 0.0882 |
| CTCGTCACTTGGGTTCTAACCTGTTGCCT (site CTCGTTACTAG) | 0.0923 |
| CTCGTGACTTGGGTTCTAACCTGTTGCCT (site CTCGTAACTAG) | 0.682 |
| CTCGTGACTTGGGTTCTAACCTGTTGCCT (site CTCGTCACTAG) | 0 |
| CTCGTGACTTGGGTTCTAACCTGTTGCCT (site CTCGTGACTAG) | 1.13 |
| CTCGTGACTTGGGTTCTAACCTGTTGCCT (site CTCGTTACTAG) | 0.335 |
| CTCTAAACTTGGGTTCTAACCTGTTGCCA (site CTCTAAACTTG) | 0.106 |
| CTCTAAACTTGGGTTCTAACCTGTTGCCA (site CTCTACACTTG) | 0.671 |
| CTCTAAACTTGGGTTCTAACCTGTTGCCA (site CTCTAGACTTG) | 0.108 |
| CTCTAAACTTGGGTTCTAACCTGTTGCCA (site CTCTATACTTG) | 0.0391 |
| CTCTAAACTTGGGTTCTAACCTGTTGCGA (site CTCTAAACTTC) | 0.919 |
| CTCTAAACTTGGGTTCTAACCTGTTGCGA (site CTCTCAGCTTC) | 0.0639 |

| Sequence | recombinant barcode read abundance (log10) |
| --- | --- |
| CTCTAACCTTGGGTTCTAACCTGTTGCGT (site CTCTAACCTAC) | 1.45 |
| CTCTAACCTTGGGTTCTAACCTGTTGCGT (site CTCTACCCTAC) | 0.0519 |
| CTCTAACCTTGGGTTCTAACCTGTTGCGT (site CTCTAGCCTAC) | 0.413 |
| CTCTAACCTTGGGTTCTAACCTGTTGCGT (site CTCTATCCTAC) | 0.0249 |
| CTCTAGACTTGGGTTCTAACCTGTTGCCT (site CTATAGACTTG) | 0.00655 |
| CTCTAGACTTGGGTTCTAACCTGTTGCCT (site CTCTAGACTAG) | 0.0941 |
| CTCTAGCCTTGGGTTCTAACCTGTTGCAT (site CTCTAGCCTAT) | 0.505 |
| CTCTAGCCTTGGGTTCTAACCTGTTGCAT (site GTCCAGCCTAT) | 0 |
| CTCTAGTCTTGGGTTCTAACCTGTTGCTT (site CTCTAGTCTAA) | 0.748 |
| CTCTAGTCTTGGGTTCTAACCTGTTGCTT (site CTCTAGTCTAC) | 0.518 |
| CTCTAGTCTTGGGTTCTAACCTGTTGCTT (site CTCTAGTCTAG) | 0.377 |
| CTCTAGTCTTGGGTTCTAACCTGTTGCTT (site CTCTAGTCTAT) | 0.755 |
| CTCTCCTCTTGGGTTCTAACCTGTTGCCT (site CTCTCCGCTAG) | 0.502 |
| CTCTCCTCTTGGGTTCTAACCTGTTGCCT (site CTCTCCTCTAG) | 1.28 |
| CTCTCGTCTTGGGTTCTAACCTGTTGCTT (site CTCTCGTCTAA) | 0.2 |
| CTCTCGTCTTGGGTTCTAACCTGTTGCTT (site CTCTCGTCTAC) | 0.517 |
| CTCTCGTCTTGGGTTCTAACCTGTTGCTT (site CTCTCGTCTAG) | 0.107 |
| CTCTCGTCTTGGGTTCTAACCTGTTGCTT (site CTCTCGTCTAT) | 0.091 |
| CTCTGTCCTTGGGTTCTAACCTGTTGCCA (site CTCTGTCCTTA) | 0.0433 |
| CTCTGTCCTTGGGTTCTAACCTGTTGCCA (site CTCTGTCCTTG) | 0.545 |
| CTCTTAACTTGGGTTCTAACCTGTTGCGG (site AAGCATGCTTA) | 0.113 |
| CTCTTAACTTGGGTTCTAACCTGTTGCGG (site CTCTTAACTCC) | 0.536 |

| Sequence | recombinant barcode read abundance (log10) |
| --- | --- |
| CTCTTAGCTTGGGTTCTAACCTGTTGCAA (site CTCTTAACTTA) | 0.0112 |
| CTCTTAGCTTGGGTTCTAACCTGTTGCAA (site CTCTTAGCTTT) | 0.0457 |
| CTCTTCACTTGGGTTCTAACCTGTTGCCG (site CTCTTCACTCG) | 0.998 |
| CTCTTCACTTGGGTTCTAACCTGTTGCCG (site CTCTTCGCTAG) | 0.0289 |
| CTGAGTTCTTGGGTTCTAACCTGTTGCCA (site CTGAGTCCTTG) | 0.269 |
| CTGAGTTCTTGGGTTCTAACCTGTTGCCA (site CTGAGTTCTTG) | 0.0274 |
| CTGATCCCTTGGGTTCTAACCTGTTGCGG (site CTGATCCCTCC) | 1.05 |
| CTGATCCCTTGGGTTCTAACCTGTTGCGG (site CTGCTCCCTCC) | 0 |
| CTGATCCCTTGGGTTCTAACCTGTTGCGG (site CTGGTCCCTCC) | 0.136 |
| CTGATCCCTTGGGTTCTAACCTGTTGCGG (site CTGTTCCCTCC) | 0.0812 |
| CTGATTACTTGGGTTCTAACCTGTTGCCT (site CTGATAACTAG) | 0.0337 |
| CTGATTACTTGGGTTCTAACCTGTTGCCT (site CTGATCACTAG) | 0.0584 |
| CTGATTACTTGGGTTCTAACCTGTTGCCT (site CTGATGACTAG) | 0.0346 |
| CTGATTACTTGGGTTCTAACCTGTTGCCT (site CTGATTACTAG) | 0.21 |
| CTGCAAGCTTGGGTTCTAACCTGTTGCCT (site CTACAAGCTAG) | 1.29 |
| CTGCAAGCTTGGGTTCTAACCTGTTGCCT (site CTCCAAGCTAG) | 0.218 |
| CTGCAAGCTTGGGTTCTAACCTGTTGCCT (site CTGCAAGCTAG) | 0.995 |
| CTGCAAGCTTGGGTTCTAACCTGTTGCCT (site CTTCAAGCTAG) | 0.854 |
| CTGGACCCTTGGGTTCTAACCTGTTGCCG (site CTGGACCCTCG) | 1.91 |
| CTGGACCCTTGGGTTCTAACCTGTTGCCG (site GATTCGACTAC) | 0.0386 |
| CTGGCAGCTTGGGTTCTAACCTGTTGCCT (site ACAAACCCTTA) | 0.241 |
| CTGGCAGCTTGGGTTCTAACCTGTTGCCT (site CTGGCAGCTAG) | 0.445 |

| Sequence | recombinant barcode read abundance (log10) |
| --- | --- |
| CTGGCGCCTTGGGTTCTAACCTGTTGCAT (site CTGGCGCCTAT) | 0.908 |
| CTGGCGCCTTGGGTTCTAACCTGTTGCAT (site TCTCGAGCTTC) | 0.0909 |
| CTGGCTCCTTGGGTTCTAACCTGTTGCTT (site CTGGCTCCTAA) | 0.227 |
| CTGGCTCCTTGGGTTCTAACCTGTTGCTT (site CTGGTTCCTAG) | 0.0218 |
| CTGGGGTCTTGGGTTCTAACCTGTTGCTT (site CTGGGGTCTAA) | 2.43 |
| CTGGGGTCTTGGGTTCTAACCTGTTGCTT (site GACTAAGCTCC) | 0.105 |
| CTGGTGCCTTGGGTTCTAACCTGTTGCCT (site CAGGTGCCTAG) | 0.808 |
| CTGGTGCCTTGGGTTCTAACCTGTTGCCT (site CCGGTGCCTAG) | 0.116 |
| CTGGTGCCTTGGGTTCTAACCTGTTGCCT (site CGGGTGCCTAG) | 0.248 |
| CTGGTGCCTTGGGTTCTAACCTGTTGCCT (site CTGGTGCCTAG) | 1.46 |
| CTGTAGCCTTGGGTTCTAACCTGTTGCTG (site CTGTAGCCTCA) | 0.578 |
| CTGTAGCCTTGGGTTCTAACCTGTTGCTG (site CTGTAGGCTTA) | 0.0376 |
| CTGTAGGCTTGGGTTCTAACCTGTTGCTA (site CTGTAGCCTCA) | 0.136 |
| CTGTAGGCTTGGGTTCTAACCTGTTGCTA (site CTGTAGGCTTA) | 0.716 |
| CTGTCGACTTGGGTTCTAACCTGTTGCCT (site CTATCCACTAG) | 0.0154 |
| CTGTCGACTTGGGTTCTAACCTGTTGCCT (site CTGTCGACTAG) | 0.286 |
| CTGTCTACTTGGGTTCTAACCTGTTGCCT (site CAGTCTACTAG) | 0.0294 |
| CTGTCTACTTGGGTTCTAACCTGTTGCCT (site CCGTCTACTAG) | 0.197 |
| CTGTCTACTTGGGTTCTAACCTGTTGCCT (site CGGTCTACTAG) | 0.134 |
| CTGTCTACTTGGGTTCTAACCTGTTGCCT (site CTGTCTACTAG) | 0.0179 |
